# Laboratory results taken from patent US9770503B2, “Immunomodulating compositions and uses therefor” (CANCURE LIMITED ACN 164 438 359, priority 2003, dated 2017).
# System: splenic lymphocytes cultured with C57bl6J derived B16F10 melanoma cells
# Assay: Mixed lymphocyte culture (MLC) screening assay, melanoma cells as stimulators
# Format: cell-based, mice
# Conditions: 3 days of growth; FIG. 4
# Text: The inventor has established a rapid screening assay for analysing the immune-enhancing activities of various lectin-interactive agents. The assay is based on the ability to grow lymphocytes derived from the spleens of vaccinated mice in mixed lymphocyte culture (MLC) in the presence or absence of the agents. The theory behind this approach is that tumour cells secrete galectins which then kill the T lymphocytes.
# Tumour cells, either NeuD12 FVB/N 202 breast cancer cells or C57bl6J derived B16F10 melanoma cells were used as stimulators and target cells for the assays. The tumour cells used as stimulators in the MLC were prepared as outlined in WO 01/88097 to express high levels of B7 antigen and were treated with interferon γ (1000 IU/mL) for 24 h before addition of interferon β (1000 IU/mL) for a further 24-48 h. The tumour cells were grown in 35 mm diameter×6 well cell culture dishes at about 1.5×10^6 cells per well. The tumour cells, after IFN treatment, were incubated with the growth arresting drug, mitomycin C for 20-25 min in situ in the 6-well culture dishes before it was removed by washing with PBS or fresh media three times and resuspension in 4 mL of fresh complete RPMI media/10% FCS.
# Lymphocytes were extracted from the spleen of vaccinated mice and passed through a 100-200 μm stainless steel mesh sieve into 5-10 mL complete RPMI media. The red blood cells were removed by centrifugation on lymphoprep and the white blood cell layer at the interface between the culture media phase and ficoll/Hypaque phase was harvested and the ficoll/Hypaque removed by washing. […] After 2-3 days, or as required (assessed by the colour of the media pH indicator change), half the media was carefully aspirated away from each well and replaced with fresh complete media with or without added lectin-interacting agent (e.g., a carbohydrate as disclosed for instance herein generally at about 0.1 mM to about 10 mM final concentration, typically at about 1 mM). […]
row,SMILES,proliferation of lymphocytes in a melanoma-specific MLC
1,OC[C@H]1O[C@@H](O[C@@H]2[C@@H](CO)OC(O)(CO)[C@H]2O)[C@H](O)[C@@H](O)[C@H]1O (mixture of isomers) [lactulose],promoting the proliferation of lymphocytes
2,OC[C@@H](O)[C@@H](O[C@@H]1O[C@H](CO)[C@H](O)[C@H](O)[C@H]1O)[C@H](O)[C@@H](O)CO [D-lactitol monohydrate],promoting the proliferation of lymphocytes
3,OC[C@H]1O[C@@H](O[C@H]2[C@H](O)[C@@H](O)[C@H](OCc3ccccc3)O[C@@H]2CO)[C@H](O)[C@@H](O)[C@H]1O [benzyl 4-O-β-D-galactopyranosyl-β-D-glucopyranoside],promoting the proliferation of lymphocytes
